We go through 3 compounds from patent JPH0770139A, “2−(モノ又はジ置換−6，7−ジヒドロ−5H−ピラゾロ[1，2−a]ピラゾリウム−6−イル)チオ−カルバペネム誘導体” (Lederle Japan Ltd, priority 1993, dated 1994).

Molecules are shown by their SMILES.

The data set relates to male CrjCD(SD) mice [CrjCD(SD)系雄性マウス]. Kind of data set: Toxicity test (subcutaneous administration to mice, 1 week observation). The class given is in vivo, mouse. The settings on record: 500mg/kg, 10 male CrjCD(SD) mice, body weight 20-23 g, observation for 1 week.
On to `Cc1cc(C)[n+]2n1CC(SC1=C(C(=O)[O-])N3C(=O)[C@H]([C@@H](C)O)[C@H]3[C@H]1C)C2` (stereo partly drawn) [化合物(26), (1R,5S,6S)−2−[(6,7−ジヒドロ−1,3−ジメチル−5H−ピラゾロ[1,2−a]ピラゾリウム−6−イル)チオ]−6−[(R)−1−ヒドロキシエチル]−1−メチル−カルバペン−2−エム−3−カルボキシレート], for which the survival without abnormality result is “すべて異常なく生存した”.
Take `C[C@@H](O)[C@H]1C(=O)N2C(C(=O)[O-])=C(SC3Cn4cc(C(=O)N(C)C)c[n+]4C3)[C@H](C)[C@H]12` (stereo partly drawn) [化合物(28), (1R,5S,6S)−2−{[6,7−ジヒドロ−2−(N,N−ジメチルカルバモイル)−5H−ピラゾロ[1.2−a]ピラゾリウム−6−イル]チオ}−6−[(R)−ヒドロキシエチル]−1−メチルカルバペン−2−エム−3−カルボキシレート]: the survival without abnormality entry is given as “すべて異常なく生存した”.
For `C[C@@H](O)[C@H]1C(=O)N2C(C(=O)[O-])=C(SC3Cn4cc(F)c[n+]4C3)[C@H](C)[C@H]12` (stereo partly drawn) [化合物(30), (1R,5S,6S)−2−[(6,7−ジヒドロ−2−フルオロ−5H−ピラゾロ[1.2−a]ピラゾリウム−6−イル)チオ]−6−[(R)−1−ヒドロキシエチル]−1−メチルカルバペン−2−エム−3−カルボキシレート] the value was “すべて異常なく生存した”.
